Laboratory results reported in ChEMBL document CHEMBL1201862, “PubChem BioAssay data set” (2004).
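Tested at 5 concentrations; 48 h exposure; 96-well plates; endpoints linearly interpolated, else capped at highest concentration. Abbreviation: GI50, concentration required for 50% inhibition of growth.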 Activity calls are given as the source filed them. Cut-off read from the data, not from the text of the source: active = GI50 up to about 1.1 µM and inactive = higher.

Assays:
Test in all cases: inhibition of tumour cell growth, NCI panel, 48 h
ACHN = system: ACHN
CCRF-CEM = system: CCRF-CEM
COLO 205 = system: COLO 205
DU-145 = system: DU-145
EKVX = system: EKVX
HCT-116 = system: HCT-116
MCF7 = system: MCF7
NCI-H23 = system: NCI-H23
NCI/ADR-RES = system: NCI/ADR-RES
OVCAR-3 = system: OVCAR-3
SF-539 = system: SF-539
SNB-19 = system: SNB-19
SNB-75 = system: SNB-75
T47D = system: T47D
U-251 = system: U-251
UO-31 = system: UO-31
HL-60 = system: HL-60
MOLT-4 = system: MOLT-4
SR = system: SR

Measured: GI50

CC(C)(C)c1cc(C(CO)OCCOCCO)cc(C(C)(C)C)c1O (centres undefined)
inactive: ACHN > 100 µM | CCRF-CEM > 100 µM | COLO 205 > 100 µM | DU-145 > 100 µM | EKVX > 100 µM | HCT-116 > 100 µM | MCF7 > 100 µM | NCI-H23 > 100 µM | NCI/ADR-RES > 100 µM | OVCAR-3 > 100 µM | SF-539 > 100 µM | SNB-19 > 100 µM | SNB-75 > 100 µM | T47D > 100 µM | U-251 > 100 µM | UO-31 > 100 µM

CNS(=O)(=O)NN(C)S(=O)(=O)c1ccc(C)cc1
inactive: ACHN > 100 µM | CCRF-CEM > 100 µM | COLO 205 > 100 µM | EKVX > 100 µM | HCT-116 > 100 µM | HL-60 > 100 µM | MOLT-4 > 100 µM | NCI-H23 > 100 µM | OVCAR-3 > 100 µM | SF-539 > 100 µM | SNB-19 > 100 µM | SR > 100 µM | UO-31 > 100 µM

COCN1C(=O)[C@@H]2CCCN2C(=O)c2ccc(N)cc21
inactive: ACHN > 100 µM | CCRF-CEM > 100 µM | COLO 205 > 100 µM | DU-145 > 100 µM | EKVX > 100 µM | HCT-116 > 100 µM | HL-60 > 100 µM | MCF7 > 100 µM | MOLT-4 > 100 µM | NCI-H23 > 100 µM | NCI/ADR-RES > 100 µM | OVCAR-3 > 100 µM | SF-539 > 100 µM | SNB-19 > 100 µM | SNB-75 > 100 µM | SR > 100 µM | U-251 > 100 µM | UO-31 > 100 µM

COC1(OC)C2C=CC1C([C@](C)(N)CO)C2 (some centres undefined)
inactive: ACHN > 100 µM | CCRF-CEM > 100 µM | COLO 205 > 100 µM | DU-145 > 100 µM | EKVX > 100 µM | HCT-116 > 100 µM | HL-60 > 100 µM | MCF7 > 100 µM | MOLT-4 > 100 µM | NCI-H23 > 100 µM | OVCAR-3 > 100 µM | SF-539 > 100 µM | SNB-19 > 100 µM | SNB-75 > 100 µM | SR > 100 µM | T47D > 100 µM | U-251 > 100 µM | UO-31 > 100 µM

CC1(C)O[C@H]2OC(CO[Si](C)(C)C(C)(C)C)C(N=[N+]=[N-])[C@H]2O1 (some centres undefined)
inactive: ACHN 18.7 µM | CCRF-CEM 16.6 µM | EKVX 22.8 µM | HCT-116 15.6 µM | HL-60 7.31 µM | MCF7 20.7 µM | MOLT-4 17 µM | NCI-H23 19.2 µM | NCI/ADR-RES 18.1 µM | OVCAR-3 22.7 µM | SF-539 20 µM | SNB-19 17.7 µM | SNB-75 28.4 µM | SR 12.4 µM | U-251 20.6 µM | UO-31 17.2 µM

COc1cc(O)c2c(=O)c(O)c(-c3ccc(O)c(OC)c3)oc2c1 [RHAMNAZIN]
inactive: CCRF-CEM 2.92 µM | COLO 205 33.7 µM | DU-145 > 100 µM | EKVX > 22.3 µM | HCT-116 5.15 µM | HL-60 4.11 µM | MCF7 2.72 µM | MOLT-4 4.41 µM | NCI-H23 > 26.5 µM | NCI/ADR-RES 5.05 µM | OVCAR-3 2.52 µM | SF-539 3.7 µM | SNB-19 3.83 µM | SNB-75 2.28 µM | T47D > 100 µM | U-251 2.19 µM

CCOP1(=O)CC(C)=C(Cl)C(OC)C1 (centres undefined)
inactive: ACHN > 100 µM | CCRF-CEM 30.1 µM | COLO 205 > 100 µM | DU-145 > 100 µM | EKVX > 100 µM | HCT-116 > 100 µM | HL-60 57.1 µM | MCF7 > 100 µM | MOLT-4 > 100 µM | NCI-H23 > 100 µM | NCI/ADR-RES > 100 µM | OVCAR-3 > 100 µM | SF-539 > 100 µM | SNB-19 > 100 µM | SNB-75 > 100 µM | SR > 100 µM | U-251 > 100 µM

c1ccc2c(c1)NC(C1OC3CCCN3C1C1Nc3ccccc3S1)S2 (centres undefined)
inactive: ACHN > 100 µM | CCRF-CEM 35.8 µM | COLO 205 83.6 µM | DU-145 > 100 µM | EKVX > 100 µM | HCT-116 55.3 µM | HL-60 20.6 µM | MCF7 44.2 µM | MOLT-4 29.9 µM | NCI-H23 29 µM | OVCAR-3 46.5 µM | SF-539 > 100 µM | SNB-19 > 100 µM | SNB-75 69.7 µM | SR 22.3 µM | U-251 80.2 µM | UO-31 55.1 µM

COc1cc2c3c(c1OC)Oc1ccc(cc1)CC1c4c(cc(OC)c(OC)c4Oc4ccc(cc4)CC3N(C)CC2)CCN1C (centres undefined)
inactive: ACHN 26.2 µM | CCRF-CEM 18.5 µM | COLO 205 13.5 µM | EKVX 67.6 µM | HCT-116 13.8 µM | HL-60 15.3 µM | MOLT-4 21.8 µM | NCI-H23 57.9 µM | OVCAR-3 18.6 µM | SF-539 14.5 µM | SNB-19 33 µM | SNB-75 21.8 µM | SR 2.88 µM | U-251 15.8 µM | UO-31 15 µM

Cc1nc2c(=O)[nH]c(=O)n(C)c2[nH]c1=O.c1ccncc1
inactive: ACHN > 100 µM | CCRF-CEM 10 µM | COLO 205 > 100 µM | EKVX > 100 µM | HCT-116 > 100 µM | HL-60 > 100 µM | MOLT-4 > 100 µM | NCI-H23 > 100 µM | OVCAR-3 > 100 µM | SNB-19 > 100 µM | SNB-75 > 100 µM | SR > 100 µM | U-251 > 100 µM | UO-31 > 100 µM

[O-][n+]1c(CN2CCCCC2)nc2cccc3c2c1-c1ccccc1-3
inactive: ACHN 18.6 µM | COLO 205 16.9 µM | DU-145 17.9 µM | EKVX 18.4 µM | HCT-116 12.8 µM | HL-60 > 100 µM | MCF7 4.22 µM | MOLT-4 > 100 µM | NCI-H23 20.3 µM | NCI/ADR-RES 22.4 µM | OVCAR-3 21.6 µM | SF-539 23.9 µM | SNB-19 23.9 µM | SNB-75 24.6 µM | SR 43.5 µM | U-251 29.4 µM | UO-31 11.9 µM

C[C@@H]1OC(=O)C[C@H]2CC(=O)N(CCC3CN(S(=O)(=O)C(F)(F)F)c4ccccc43)C[C@@H]21 (some centres undefined)
inactive: ACHN > 100 µM | CCRF-CEM > 100 µM | COLO 205 > 100 µM | DU-145 > 100 µM | EKVX > 100 µM | HCT-116 > 100 µM | MCF7 > 100 µM | MOLT-4 > 100 µM | NCI-H23 > 100 µM | NCI/ADR-RES > 100 µM | OVCAR-3 > 100 µM | SNB-19 > 100 µM | SR > 100 µM | U-251 > 100 µM | UO-31 > 100 µM

Nc1n[nH]c2nc3ccc(C(F)(F)F)cc3nc12
inactive: ACHN 25.1 µM | CCRF-CEM 17 µM | COLO 205 16 µM | DU-145 16.7 µM | EKVX 7.87 µM | HCT-116 24.7 µM | MCF7 15.3 µM | MOLT-4 43.5 µM | NCI-H23 22.2 µM | NCI/ADR-RES 33.4 µM | SNB-19 32.2 µM | SNB-75 13.6 µM | SR 49.4 µM | U-251 39.5 µM | UO-31 17.6 µM

CCOC(=O)C(NC(=O)Nc1ccccc1F)(OC)C(F)(F)F (centres undefined)
inactive: ACHN > 100 µM | CCRF-CEM > 100 µM | COLO 205 > 100 µM | EKVX > 100 µM | HCT-116 > 100 µM | HL-60 > 100 µM | MOLT-4 > 100 µM | NCI-H23 > 100 µM | NCI/ADR-RES > 100 µM | SF-539 > 100 µM | SNB-19 > 100 µM | SNB-75 > 100 µM | SR > 100 µM | T47D > 100 µM | U-251 > 100 µM | UO-31 > 100 µM

COC(=O)c1c(C(=O)OC)c2ccc(-c3ccc(Cl)cc3)nn2c1C(=O)c1ccc([N+](=O)[O-])cc1
inactive: ACHN 43 µM | CCRF-CEM 17.1 µM | COLO 205 27.3 µM | DU-145 > 100 µM | EKVX 27.4 µM | HCT-116 27.2 µM | MCF7 40.2 µM | MOLT-4 15.3 µM | NCI-H23 > 100 µM | NCI/ADR-RES > 100 µM | OVCAR-3 43.5 µM | SF-539 44.4 µM | SNB-19 > 100 µM | T47D 27.9 µM | U-251 > 100 µM | UO-31 32.1 µM
active: HL-60 < 0.01 µM

Cc1cc(O)c2c(c1O)C(=O)C1=C(C2=O)C(=O)C2C(O)C1C1C(O)CC(O)=C3C(=O)c4c(O)cc(C)c(O)c4C(=O)C321 (centres undefined)
inactive: ACHN 1.35 µM | DU-145 1.32 µM | EKVX 1.98 µM | MCF7 2.62 µM | MOLT-4 1.52 µM | NCI-H23 2.73 µM | OVCAR-3 1.3 µM | SF-539 1.94 µM | SNB-19 1.2 µM | SR 2.36 µM | T47D 1.24 µM
active: CCRF-CEM 0.577 µM | COLO 205 0.834 µM | HCT-116 0.541 µM | HL-60 1.1 µM | SNB-75 1.03 µM | U-251 0.658 µM

O=C1OC(=O)C2=C1C(c1cccs1)C=C(c1cccnc1)N2c1ccncc1 (centres undefined)
active: SR 1.12 µM
inactive: ACHN 16.5 µM | CCRF-CEM 20.1 µM | COLO 205 17.5 µM | DU-145 16.6 µM | EKVX 14 µM | HCT-116 14.3 µM | HL-60 11 µM | MOLT-4 23.1 µM | NCI-H23 17.6 µM | NCI/ADR-RES 29.4 µM | OVCAR-3 13.4 µM | SNB-19 18 µM | SNB-75 15.2 µM | T47D 18.2 µM | U-251 16.9 µM | UO-31 15.6 µM
